Data on 2 molecules can be found in US4504481A, “Benzhydrylpiperazine derivatives, process for their preparation and pharmaceutical compositions containing them” (Richter Gedeon Vegyeszeti Gyar Rt., priority 1982, dated 1985).

The subject of one data set is aminopyrine demethylase. Description: aminopyrine demethylase activity of liver after oral treatment (formaldehyde formed). The format is in vivo, Female H.-Wistar rats. The settings on record: rat liver, 2 hours after single 40 mg./kg. oral dose; ± S.E.; control 260.7 ± 11.2 nmoles/g. of liver/min. The protocol: (§1) The enzyme inhibiting activity of the compounds of the formula (I) was further tested by determining the activity of the polysubstrate liver monooxygenase enzyme system after treatment with placebo and the compounds according to the invention, respectively. Female H.-Wistar rats weighing 50 to 60 g. each were administered a single 40 mg./kg. oral dose of the test compounds. Two hours after treatment the animals were decapitated and the livers were removed. After rinsing with a physiological saline solution at 0° C., drying and weighing, the livers were homogenized in a 0.1 molar Tris-HCl buffer (pH=7.4), containing 1.15% of potassium chloride at 0° C., centrifuged at 9000 g for 20 minutes, and the supernatant (postmitochondrial fraction) was used for further investigations. The microsomal fraction was prepared following the method developed by Cinti D. L. et al.: Biochem. Pharmacol., 21, 3249 (1972). The activity of aniline hydroxylase was determined from the velocity of p-amino-phenol formation according to Chabra R. S. et al.: Toxicol. Appl. Pharmacol. 22, 50 (1972). The activity of the aminopyrine demethylase was measured from the amount of the formaldehyde formed, according to Gourlay G. K. et al: Biochem. Pharmacol., 27, 965 (1978). The control groups were treated with placebo. The results are shown in Table 2, expressed in percentage of the control.

The test system of a further data set is aniline hydroxylase. Description: aniline hydroxylase activity of liver after oral treatment (p-amino-phenol formation). The note with it: rat liver, 2 hours after single 40 mg./kg. oral dose; ± S.E.; control 19.8 ± 0.53 nmoles/g. of liver/min. The format is in vivo, Female H.-Wistar rats. The protocol: as §1
Another data set has as its system hexobarbital oxidase. Nature of the data set: in vivo hexobarbital narcosis period (change of hexobarbital oxidase activity). The arrangement: species or system Female Hann.-Wistar rats. The note with it: rat, hexobarbital sodium 60 mg./kg. i.v., ± S.E., n=10; for Hexobarbital narcosis period in % of control, 1 hour: 1 hour after administration, control 44.3 ± 5.67 min.; for Hexobarbital narcosis period in % of control, 24 hours: 24 hours after administration, control 47.0 ± 5.21 min. As to the method:
The enzyme inhibiting activity of the new compounds was tested in vivo, by measuring the change of hexobarbital oxidase activity. Female Hann.-Wistarrats, each weighing 50 to 60 g. were treated orally with a single 40 mg./kg. dose of the test compound. One and 24 hours after the administration of the active ingredient, the animals were narcotized with a 60 mg./kg. i.v. dosage of hexobarbital sodium, and the time elapsed until complete wakening was measured (Noordhoek, J.: Eur. J. Pharmacol., 3, 242 (1968)). The data were recorded, and the mean values, the standard errors as well as the percentage increase with respect to the controls were calculated for each group. […] The hexobarbital concentration of the plasm, measured on the instant wakening, was the same for both the treated and the control animals, and thus the increase of narcosis period was not due to a certain central nervous interaction (Jori, A. et al.: Biochem. Pharmacol., 19, 2687 (1970)).
The control group was treated with placebo.

The next data set can be described thus: acute oral toxicity. The note with it: in vivo; rat, single 500 mg./kg. oral dose, 14 days observation, n=10; read-out: Perished animals. As to the method:
The acute toxicity of the compounds having the formula (I) was tested on H-Wistar rats of both sexes, each weighing 160 to 180 g. The compounds were administered in a single 500 mg./kg. oral dose.

The conditions of data set [1]: H. Ippen: Index Pharmacorum (1970); cited from earlier work.

As to `CCC(O)(c1ccc(OCCCN2CCN(C(c3ccccc3)c3ccccc3)CC2)cc1)c1ccccc1OC` (stereo not drawn) [A, α-ethyl-α-(2-methoxyphenyl)-4-[3-(4-benzhydryl-piperazin-1-yl)-propoxy]-benzylalcohol], the “Aminopyrine demethylase activity, in percentage of the control” value with aminopyrine demethylase is recorded as 71 ± 8.1 % of control. The “Aniline hydroxylase activity, in percentage of the control” value with aniline hydroxylase is 72 ± 5.8 % of control. In addition, in the data set on hexobarbital oxidase (single oral dose 40 mg./kg.), the “Hexobarbital narcosis period in % of control, 1 hour” value is recorded as 116 ± 6.7 % of control and the “Hexobarbital narcosis period in % of control, 24 hours” value was 172 ± 8.7 % of control. For the same molecule, the mortality at 336 h in the data set “acute oral toxicity” was determined as 0%.
For the molecule `CCCC(C(=O)OCCN(CC)CC)(c1ccccc1)c1ccccc1` [Proadiphene, (2-diethylaminoethyl)-α,α-diphenyl valerate, reference compound], the anticonvulsive side effect result in data set [1] is given as “exerted an anticonvulsive side effect”. Besides, in the data set on hexobarbital oxidase (reference dose 100 mg./kg.), the “Hexobarbital narcosis period in % of control, 1 hour” value is 241 ± 9.6 % of control and the “Hexobarbital narcosis period in % of control, 24 hours” value is given as 44 ± 5.7 % of control. Also, the mortality at 336 h in the data set “acute oral toxicity” turned out to be 90%.
